In the assay the target is T1, Tyro-3 (h) (Homo sapiens, UniProt Q06418).
T1 construct: purchased
T1 sequence (Q06418 41-890): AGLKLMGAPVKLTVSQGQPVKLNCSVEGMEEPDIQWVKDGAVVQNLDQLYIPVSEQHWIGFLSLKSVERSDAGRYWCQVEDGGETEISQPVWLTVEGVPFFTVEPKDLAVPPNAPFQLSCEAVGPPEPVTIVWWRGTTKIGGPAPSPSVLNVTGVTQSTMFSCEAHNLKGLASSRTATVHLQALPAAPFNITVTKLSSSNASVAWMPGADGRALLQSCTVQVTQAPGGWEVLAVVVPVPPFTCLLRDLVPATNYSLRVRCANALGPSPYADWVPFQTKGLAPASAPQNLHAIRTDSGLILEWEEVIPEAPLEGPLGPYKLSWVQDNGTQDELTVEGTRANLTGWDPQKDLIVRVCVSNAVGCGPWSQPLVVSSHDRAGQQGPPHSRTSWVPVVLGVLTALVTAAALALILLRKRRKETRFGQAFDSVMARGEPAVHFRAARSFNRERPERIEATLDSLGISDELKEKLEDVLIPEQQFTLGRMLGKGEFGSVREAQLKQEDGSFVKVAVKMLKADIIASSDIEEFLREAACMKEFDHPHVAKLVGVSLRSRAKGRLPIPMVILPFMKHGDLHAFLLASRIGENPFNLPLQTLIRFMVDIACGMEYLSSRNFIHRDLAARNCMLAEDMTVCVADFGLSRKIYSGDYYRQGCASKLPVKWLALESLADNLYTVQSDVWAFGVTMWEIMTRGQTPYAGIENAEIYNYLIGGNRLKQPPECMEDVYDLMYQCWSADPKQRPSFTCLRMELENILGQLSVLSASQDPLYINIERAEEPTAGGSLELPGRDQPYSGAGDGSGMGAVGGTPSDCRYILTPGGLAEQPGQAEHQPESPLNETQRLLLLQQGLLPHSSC
Nature of the assay: Enzymatic activity test, Tyro-3 (h). As to conditions: 10 μM [γ-33P]-ATP, 40 minutes, room temperature. It counts as biochemical. On the procedure:
Assay 3: Enzymatic Activity Test of the Compounds of the Present Invention
Test substances: the compounds of the present invention, wherein the structures and preparations thereof were as described above.
(1) Preparation of the Compound Stock Solution
The compound was dissolved in 100% DMSO to prepare a stock solution with a maximum concentration of 500 μM.
(2) Preparation of the Compound Working Solution
The compound stock solution was diluted to final concentrations of 500, 150, 50, 15, 5, 1.5, 0.5, 0.15 and 0.05 μM to become the compound working solutions (50×).
(3) Preparation of Different Enzyme Reaction Solutions
The Tyro3 (h) enzyme was dissolved in 8 mM MOPS (pH 7.0), 0.2 mM EDTA, 1 mM MnCl2, and 250 μM KVEKIGEGTYGVVYK to prepare an enzyme solution having a final concentration of 38 nM. The enzymatic reaction was activated by using 10 mM magnesium acetate and 10 μM [γ-^33P]-ATP to form an Mg/ATP mixed solution.
In a 384-well plate, the compound working solution was added to final concentrations of 10000, 3000, 1000, 300, 100, 30, 10, 3, and 1 nM. Then different enzyme reaction solutions prepared according to the above conditions were added. The incubation was carried out for 40 minutes at room temperature. The test was terminated by the addition of a 0.5% phosphoric acid solution. 10 μL of the reaction solution was taken and dropped to the P30 filter paper. The filter paper was washed 4 times with 0.425% phosphoric acid solution and once with methanol, and then placed on a scintillation counter. The […] IC50 values were calculated using GraphPad 5.0 software.
Consider `COc1cc2nccc(Oc3cnc(NC(=O)c4nn(C5CC5)cc(-c5ccc(F)cc5)c4=O)nc3)c2cc1OC` [Compound 33], for which the IC50 turned out to be 8 nM.

Take `COc1cc2nccc(Oc3ccc(NC(=O)c4cn(C(C)C)nc(-c5ccc(F)cc5)c4=O)cn3)c2cc1OC` [Compound 38, N-(6-((6,7-dimethoxyquinolin-4-yl)oxy)pyridin-3-yl)-6-para-fluorophenyl-2-isopropyl-5-oxo-2,5-dihydropyridazine-4-carboxamide]: the IC50 amounted to 93 nM.

Compound `COc1cc2nccc(Oc3ccc(NC(=O)c4cn(C(C)C)nc(-c5ccc(F)cc5)c4=O)nc3)c2cc1OC` [Compound 41, N-(5-((6,7-dimethoxyquinolin-4-yl)oxy)pyridin-2-yl)-6-(4-fluorophenyl)-2-isopropyl-5-oxo-2,5-dihydropyridazine-4-carboxamide] yielded an IC50 of 65 nM. `COc1cc2nccc(Oc3cnc(NC(=O)c4nn(C(C)C)cc(-c5ccc(F)cc5)c4=O)nc3)c2cc1OC` [Compound 16, N-(5-((6,7-dimethoxyquinolin-4-yl)oxy)pyrimidine-2-yl)-5-(4-fluorophenyl)-1-isopropyl-4-oxo-1,4-dihydropyridazine-3-carboxamide]: the IC50 was found to be 12 nM. Against the preceding compound, the IC50 is about 5.4-fold lower. The value for `COc1cc2nccc(Oc3cnc(NC(=O)c4cn(C5CC5)cc(-c5ccc(F)cc5)c4=O)nc3)c2cc1OC` [Compound 32, 1-cyclopropyl-N-(5-((6,7-dimethoxyquinolin-4-yl)oxy)pyrimidine-2-yl)-5-(4-fluorophenyl)-4-oxo-1,4-dihydropyridin-3-carboxamide] was 11 nM; that for `COc1cc2nccc(Oc3ccc(NC(=O)c4nn(C(C)C)cc(-c5ccc(F)cc5)c4=O)cn3)c2cc1OC` [Compound 29, N-(6-((6,7-dimethoxyquinolin-4-yl)oxy)pyridin-3-yl)-1-isopropyl-4-oxo-5-para-fluorophenyl-1,4-dihydropyridazine-3-carboxamide] was 12 nM.

`COc1cc2nccc(Oc3ncc(NC(=O)c4nn(C(C)C)cc(-c5ccc(F)cc5)c4=O)cn3)c2cc1OC` [Compound 34, N-(2-((6,7-dimethoxyquinolin-4-yl)oxy)pyrimidine-5-yl)-5-para-fluorophenyl-1-isopropyl-4-oxo-1,4-dihydropyridazine-3-carboxamide] showed an IC50 of 7 nM.

Compound `COc1cc2nccc(Oc3ncc(NC(=O)c4nn(C5CC5)cc(-c5ccc(F)cc5)c4=O)cn3)c2cc1OC` [Compound 37, 1-cyclopropyl-N-(2-((6,7-dimethoxyquinolin-4-yl)oxy)pyrimidine-5-yl)-5-para-fluorophenyl-4-oxo-1,4-dihydropyridazine-3-carboxamide] displayed an IC50 of 12 nM. The value for `COc1cc2nccc(Oc3ccc(NC(=O)c4nn(C(C)C)cc(-c5ccc(F)cc5)c4=O)nc3)c2cc1OC` [Compound 15, N-(5-((6,7-dimethoxyquinolin-4-yl)oxy)pyridin-2-yl)-5-(4-fluorophenyl)-1-isopropyl-4-oxo-1,4-dihydropyridazine-3-carboxamide] was 13 nM; that for `COc1cc2nccc(Oc3ccc(NC(=O)c4cn(C5CC5)cc(-c5ccc(F)cc5)c4=O)nc3)c2cc1OC` [Compound 30, N-(5-((6,7-dimethoxyquinolin-4-yl)oxy)pyridin-2-yl)-1-cyclopropyl-4-oxo-5-para-fluorophenyl-1,4-hydropyridin-3-carboxamide] was 16 nM; that for `COc1cc2nccc(Oc3ccc(NC(=O)c4nn(C5CC5)cc(-c5ccc(F)cc5)c4=O)nc3)c2cc1OC` [Compound 31] was 7 nM. Take `COc1cc2nccc(Oc3ccc(NC(=O)c4nn(C5CC5)cc(-c5ccc(F)cc5)c4=O)cn3)c2cc1OC` [Compound 36]: the IC50 was 7 nM. `COc1cc2nccc(Oc3ncc(NC(=O)c4cn(C(C)C)nc(-c5ccc(F)cc5)c4=O)cn3)c2cc1OC` [Compound 40, N-(2-((6,7-dimethoxyquinolin-4-yl)oxy)pyrimidine-5-yl)-6-(4-fluorophenyl)-2-isopropyl-5-oxo-2,5-dihydropyridazine-4-carboxamide] had an IC50 of 143 nM. In turn, `COc1cc2nccc(Oc3ccc(NC(=O)c4cn(C(C)C)cc(-c5ccc(C)cc5)c4=O)nc3)c2cc1OC` [Compound 1, N-(5-((6,7-dimethoxyquinolin-4-yl)oxy)pyridin-2-yl)-1-isopropyl-4-oxo-5-p-tolyl-1,4-dihydropyridin-3-carboxamide] showed an IC50 of 29 nM. Compound `COc1cc2nccc(Oc3cnc(NC(=O)c4cn(C(C)C)nc(-c5ccc(F)cc5)c4=O)nc3)c2cc1OC` [Compound 39, N-(5-((6,7-dimethoxyquinolin-4-yl)oxy)pyrimidine-2-yl)-6-(4-fluorophenyl)-2-isopropyl-5-oxo-2,5-dihydropyridazine-4-carboxamide] showed an IC50 of 36 nM.

`COc1cc2nccc(Oc3ccc(NC(=O)c4cn(C(C)C)cc(-c5ccc(F)cc5)c4=O)nc3)c2cc1OC` [Compound 14, N-(5-((6,7-dimethoxyquinolin-4-yl)oxy)pyridin-2-yl)-5-(4-fluorophenyl)-1-isopropyl-4-oxo-1,4-dihydropyridin-3-carboxamide] came in with an IC50 of 21 nM. Compared with the last compound, the IC50 is about 1.7-fold lower.

As a reminder, the IC50 is the midpoint of a concentration-inhibition curve. Higher therefore signals weaker potency.

The record behind these values is patent US20220073496A1, “NOVEL QUINOLINE DERIVATIVE INHIBITOR” (Nanjing Transthera Biosciences Co., Ltd., priority 2018, published 2022).
